Measurements published in ChEMBL document CHEMBL1201862, “PubChem BioAssay data set” (2004).
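The compound was tested at five concentrations on cells cultured in 96-well plates, with a 48-hour exposure period. GI50 marks 50% less growth.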 Calls of active or inactive are those of the source. Rule as the data show it: active = GI50 up to about 1.1 µM and inactive = higher. Non-standard residues stand in square brackets, D forms with d. Residues, ends and D or L forms follow the SMILES beside them. ξ: configuration not given here. *: point of attachment. ξF = NC(Cc1ccccc1)C(=O)O; Cbz = O=C(OCc1ccccc1)*

Assays:
Assay in all cases: inhibition of tumour cell growth, NCI panel, 48 h
SF-268 = system: SF-268
RPMI-8226 = system: RPMI-8226
Hs-578T = system: Hs-578T
UACC-62 = system: UACC-62
SF-539 = system: SF-539
SR = system: SR
BT-549 = system: BT-549
SK-MEL-28 = system: SK-MEL-28
U-251 = system: U-251
HCT-116 = system: HCT-116
OVCAR-5 = system: OVCAR-5
NCI-H460 = system: NCI-H460
A549 = system: A549
MDA-MB-435 = system: MDA-MB-435
LOX IMVI = system: LOX IMVI
SK-MEL-2 = system: SK-MEL-2
CAKI-1 = system: CAKI-1
EKVX = system: EKVX
OVCAR-8 = system: OVCAR-8

Compound	GI50 (SF-268)	GI50 (RPMI-8226)	GI50 (Hs-578T)	GI50 (UACC-62)	GI50 (SF-539)	GI50 (SR)	GI50 (BT-549)	GI50 (SK-MEL-28)	GI50 (U-251)	GI50 (HCT-116)	GI50 (OVCAR-5)	GI50 (NCI-H460)	GI50 (A549)	GI50 (MDA-MB-435)	GI50 (LOX IMVI)	GI50 (SK-MEL-2)	GI50 (CAKI-1)	GI50 (EKVX)	GI50 (OVCAR-8)
C=C1c2nc3ccccc3n2C=C(c2ccc(Cl)cc2)N1c1ccc(OCCN2CCOCC2)cc1	34.7 µM (inactive)	2.91 µM (inactive)	19.5 µM (inactive)	19.9 µM (inactive)	55.3 µM (inactive)	12 µM (inactive)	39.3 µM (inactive)	28.9 µM (inactive)	30.5 µM (inactive)	26.2 µM (inactive)	> 100 µM (inactive)	5.47 µM (inactive)	27.4 µM (inactive)	12.6 µM (inactive)	11 µM (inactive)	6.73 µM (inactive)			
O=C1CC(C(=O)O)Cc2c(Br)ccc(O)c21 (centres undefined)	> 100 µM (inactive)	> 100 µM (inactive)	> 100 µM (inactive)	> 100 µM (inactive)		43.7 µM (inactive)	> 100 µM (inactive)	> 100 µM (inactive)	> 100 µM (inactive)	> 100 µM (inactive)	> 100 µM (inactive)	> 100 µM (inactive)	> 100 µM (inactive)	> 100 µM (inactive)	> 100 µM (inactive)	> 100 µM (inactive)	> 100 µM (inactive)	78.2 µM (inactive)	> 100 µM (inactive)
O=c1[nH]nc(Cc2ccccc2)n1N=C1CCCCC1	> 100 µM (inactive)	> 100 µM (inactive)	> 100 µM (inactive)	> 100 µM (inactive)			> 100 µM (inactive)	> 100 µM (inactive)	> 100 µM (inactive)	> 100 µM (inactive)	3.78 µM (inactive)	> 100 µM (inactive)	> 100 µM (inactive)	> 100 µM (inactive)	> 100 µM (inactive)	> 100 µM (inactive)	> 100 µM (inactive)	< 0.01 µM (active)	> 100 µM (inactive)
CCc1c(O)nc(Nc2nc3ccccc3[nH]2)[nH]c1=O	> 100 µM (inactive)		> 100 µM (inactive)	> 100 µM (inactive)	> 100 µM (inactive)	92.9 µM (inactive)	> 100 µM (inactive)	> 100 µM (inactive)	> 100 µM (inactive)	> 100 µM (inactive)	> 100 µM (inactive)	> 100 µM (inactive)	> 100 µM (inactive)	> 100 µM (inactive)	> 100 µM (inactive)	> 100 µM (inactive)			> 100 µM (inactive)
Clc1ccccc1/C=c1\nc(-c2ccccc2)n2c1nc1ccccc12	19.8 µM (inactive)	84.3 µM (inactive)	25.8 µM (inactive)	30.8 µM (inactive)	20 µM (inactive)		18.2 µM (inactive)	> 100 µM (inactive)	21.7 µM (inactive)	35.4 µM (inactive)	> 100 µM (inactive)	> 100 µM (inactive)	> 100 µM (inactive)	> 100 µM (inactive)	> 100 µM (inactive)	45.3 µM (inactive)	68.7 µM (inactive)	13.4 µM (inactive)	31.2 µM (inactive)
CCOC(=O)c1nc2ccc(C(F)(F)F)cc2nc1Nc1ccc(OC)cc1	46.2 µM (inactive)	> 100 µM (inactive)	35.2 µM (inactive)	55.7 µM (inactive)	33 µM (inactive)	> 100 µM (inactive)	27.9 µM (inactive)	> 100 µM (inactive)	27.5 µM (inactive)	56.4 µM (inactive)	> 100 µM (inactive)	41.1 µM (inactive)	50.1 µM (inactive)	> 100 µM (inactive)	> 100 µM (inactive)	71.9 µM (inactive)		98.9 µM (inactive)	> 100 µM (inactive)
CCOC(=O)CNC(=O)C(Cc1ccccc1)NC(=O)OCc1ccccc1 (centres undefined) (Cbz-[ξF]-Gly-OEt)	> 100 µM (inactive)	> 100 µM (inactive)	70.8 µM (inactive)			> 100 µM (inactive)	> 100 µM (inactive)		> 100 µM (inactive)	> 100 µM (inactive)	> 100 µM (inactive)	> 100 µM (inactive)	> 100 µM (inactive)	> 100 µM (inactive)	> 100 µM (inactive)			> 100 µM (inactive)	> 100 µM (inactive)
C#CC(=O)OCC#CCOC(=O)C#C	> 100 µM (inactive)	15.1 µM (inactive)	27.8 µM (inactive)	22.7 µM (inactive)	15.3 µM (inactive)		18.6 µM (inactive)		17.5 µM (inactive)	15.7 µM (inactive)		> 100 µM (inactive)	27.9 µM (inactive)	28.8 µM (inactive)	1.05 µM (active)	20.2 µM (inactive)	19.8 µM (inactive)	14.2 µM (inactive)	30.8 µM (inactive)
C=CCN1C[C@H](C)N([C@H](c2ccc(C(=O)N(CC)CCO)cc2)c2cccc(OC)c2)C[C@H]1C	> 100 µM (inactive)	40 µM (inactive)	> 100 µM (inactive)	> 100 µM (inactive)	> 100 µM (inactive)	51.3 µM (inactive)	> 100 µM (inactive)	> 100 µM (inactive)	56 µM (inactive)	> 100 µM (inactive)	> 100 µM (inactive)		> 100 µM (inactive)	> 100 µM (inactive)		> 100 µM (inactive)	> 100 µM (inactive)	> 100 µM (inactive)	> 100 µM (inactive)
O=C1C(Cl)=C(Oc2ccc([N+](=O)[O-])cc2)C(=O)c2c(O)ccc(O)c21	> 61.8 µM (inactive)	21 µM (inactive)	> 100 µM (inactive)	> 63.7 µM (inactive)	> 100 µM (inactive)	3.78 µM (inactive)	49.3 µM (inactive)	> 50.2 µM (inactive)	> 100 µM (inactive)	49.3 µM (inactive)	> 100 µM (inactive)	> 100 µM (inactive)	> 100 µM (inactive)	> 47.5 µM (inactive)				> 100 µM (inactive)	> 100 µM (inactive)
Nc1nc(NNc2ccccc2F)cc(=O)[nH]1		54.2 µM (inactive)	> 100 µM (inactive)		> 100 µM (inactive)	> 100 µM (inactive)	> 100 µM (inactive)	> 100 µM (inactive)	82.2 µM (inactive)	> 100 µM (inactive)	> 100 µM (inactive)	> 100 µM (inactive)	> 100 µM (inactive)	> 100 µM (inactive)	42 µM (inactive)			> 100 µM (inactive)	> 100 µM (inactive)
O=c1cc(N2CCN(c3cc(=O)n4ccccc4n3)CC2)oc2ccccc12	25.6 µM (inactive)	23 µM (inactive)	36.2 µM (inactive)	> 100 µM (inactive)	> 100 µM (inactive)		68.1 µM (inactive)	> 100 µM (inactive)	> 58.1 µM (inactive)	> 100 µM (inactive)	> 100 µM (inactive)	26.6 µM (inactive)	32.3 µM (inactive)	55 µM (inactive)	> 100 µM (inactive)	> 100 µM (inactive)	34 µM (inactive)	31.2 µM (inactive)	> 51.4 µM (inactive)
